Earlier results on 2 molecules are cited in article PMC11677126, “Synthesis and Structure–Activity Relationship of Thiourea Derivatives Against Leishmania amazonensis” (Pharmaceuticals, 2024).

For one data set, the system named is L. infantum amastigote. The following applies: cited from earlier work.
The test system of a further data set is L. donovani amastigote. The following applies: cited from earlier work.
The subject of data set [1] is Leishmania amazonensis amastigotes. The arrangement: method as in PMID 28966275. The following applies: read-out: IC50 (amastigote); cited from earlier work.
The test system of data set [2] is L. amazonensis promastigote. The arrangement: method as in PMID 28966275. The note with it: cited from earlier work.

As usually defined, the IC50 is the concentration that gives 50% inhibition. As for `CC(C)Oc1cc(C(=O)Nc2cc(-c3ccccn3)n[nH]2)cc(C(=O)N2CCCC2)c1` [Compound 6], the IC50 in the data set with L. infantum amastigote is greater than 42.4 µM; in the data set with L. donovani amastigote, no less than 10.9 µM.
Turning to `S=C(NCCc1ccccc1)Nc1ccc2c(c1)OCO2` [Compound 8], the values for the IC50 in data set [1] and in data set [2] were 70 µM and 54.1 ± 6.77 µM, respectively.
